# According to patent US20170022258A1, “PEPTIDES FOR USE IN THE TREATMENT OF IL-1 RELATED DISEASES AND CONDITIONS” (C4M PHARMACEUTICALS PTY LTD., priority 2011, published 2017):
# Non-standard residues stand in square brackets, D forms with d. Residues, ends and D or L forms follow the SMILES beside them.
# System: IL-1α+IFN-γ induced IL-8 production by HT-29 cells
# Assay: IL-1α+IFN-γ induced IL-8 production by HT-29 cells
# Assay type: cell-based, human
# Experimental: Human colon epithelial cell lines HT-29 and Caco2 obtained from the European Collection of Animal Cell Cultures (ECACC) were used in cell cultures. Cells were routinely cultured at 37° C. in an atmosphere of 5% CO2 in 80 cm^2 tissue culture flasks in McCoy's and DMEM medium, respectively, supplemented with penicillin (10 u/ml), streptomycin (10 μg/ml), fungizone (0.5 μg/ml), and 10% (v/v) FCS (referred to as complete medium) until confluent.
# Confluent monolayers were sub-cultured into 6-well plates for experimental protocols. Cells were grown in 6-well plates until confluent. Twenty-four hours prior to the experiment the confluent monolayers were washed and cultured in FCS-free McCoy's medium. Growth arrested cultures were then treated with fresh FCS-free medium and stimulated with vehicle controls or various doses of IL-1α added alone or in combination with other pro-inflammatory cytokines (TNF-α, IFN-γ) in the presence or absence of the peptide of sequence 4 or IL-1 ra, in a dose and time dependent manner.
# Supernatants were collected, centrifuged to remove cellular debris and stored at −70° C. until assayed for extracellular inflammatory mediators. Total RNA for RT-PCR was extracted as described above. Cell counting and viability was routinely checked at the beginning and the end of the experiment by phase microscopy and by trypan blue exclusion using representative wells. Mycoplasma tests were performed during the experimental protocol. Production of soluble mediators was assessed by commercially available ELISA in supernatants, RT-PCR in total RNA extractants and nitric oxide, as described in Kolios, G, et al. (1995). Br J Pharmacol, 116, 2866-2872, the contents of which are incorporated herein by reference.
# Stimulation of HT-29 cells with a combination of pro-inflammatory cytokines induces increased secretion of chemokines, including IL-8 (as described in Kolios, G, et al. (1999). Eur J Immunol, 29, 530-536 the contents of which are herein incorporated by reference). […]
smiles,measurement,setting,value
"CC(=O)N[C@H](CC(C)C)C(=O)N1CCC[C@@H]1C(=O)N[C@H](CC(C)C)C(=O)N[C@H](C)C(=O)N[C@H](Cc1ccc(O)cc1)C(=O)N1CCC[C@@H]1C(=O)N[C@H](CCC(N)=O)C(=O)N[C@H](Cc1c[nH]c2ccccc12)C(=O)N[C@H](Cc1ccc(O)cc1)C(=O)NCC(=O)N1CCC[C@@H]1C(=O)N[C@@H](C(=O)N[C@H](Cc1c[nH]c2ccccc12)C(=O)N[C@H](CCC(=O)O)C(=O)N[C@H](Cc1ccccc1)C(=O)O)[C@H](C)O [SEQ ID NO. 4, Ac-LPLAYPQWYGPTWEF] (Ac-[dL][dP][dL][dA][dY][dP][dQ][dW][dY]G[dP][dT][dW][dE][dF]-OH; C-terminus assumed)",IL-1α+IFN-γ induced IL-8 production,"10 ng/ml IL-1α+300 U IFN-γ, peptide 5 ng/ml, stimulated control 78.79±6.99, n=3",35.41±4.23 ng/ml per 106 cells
same,Effect on IL-1α+IFN-γ induced IL-8 production,"all concentrations used, 5 ng/ml-1 μg/ml, p<0.01, FIG. 3",inhibitory effect for all concentrations used
